The numbers were not newly measured in patent US12048769B2, “Methods for administering weight loss medications” (priority 2006, dated 2024), which cites them from elsewhere.

For data set [1] the following is noted: in vivo.
For data set [2] the following is noted: in vivo. The source holds these as a separate data set.
The subject of data set [3] is patients presenting primary obesity. To be noted: comparable to marketed weight loss medications.
Data set [4] deals with carbonic anhydrase.

Structures are written as SMILES.

Take `Cc1cc2c(s1)Nc1ccccc1N=C2N1CCN(C)CC1` [Olanzapine, 2-methyl-4-(4-methyl-1-piperazinyl)-10H-thieno[2,3-b][1,5]benzodiazepine]: in data set [1], the “effect of food on bioavailability” value is “not affected by food”, the first pass metabolism result was “extensive first pass metabolism”, the kinetics result is “linear kinetics” and the “time to steady state plasma concentrations” value is listed as “about a week”.
For `NCCC(Oc1ccc(C(F)(F)F)cc1)c1ccccc1` (stereo not drawn) [norfluoxetine], the elimination half-life (after long-term use, healthy adults) is 16 days.
As for `CNCCC(Oc1ccc(C(F)(F)F)cc1)c1ccccc1` (stereo not drawn) [Fluoxetine, N-methyl-3-phenyl-3-[4-(trifluoromethyl)phenoxy]-propan-1-amine], for the setting “in vivo”, the bioavailability entry is listed as “approximately 72%” and the “time to complete excretion” value is “several weeks”. Also, the plasma protein binding result (mostly albumin) was “highly bound”. For the same compound, the “elimination half-life in liver disease” value (those with liver disease) was “prolonged”. Further, the physiological half life entry in data set [2] is recorded as “about 24 hours”.
Turning to `NS(=O)(=O)Cc1noc2ccccc12` [Zonisamide], the weight loss result in data set [3] is given as “significant weight loss”. Besides, the “inhibitory effect on carbonic anhydrase” value in data set [4] was “weak inhibitory effect”.
